Assay results taken from US12485123B2, “1H-pyrazolo[4,3-d]pyrimidine compounds as toll-like receptor 7 (TLR7) agonists” (BRISTOL-MYERS SQUIBB COMPANY, priority 2020, dated 2025).
pEC50: −log10 of the molar value.

Experiments:
CD69 = assay: Induction of CD69 in human whole blood; type: cell-based; conditions: 17 hrs incubation, CD69 surface staining, 100% set to 1 uM of resiquimod, average where assay repeated, read-out: hWB CD69 EC50
Experimental: Induction of Type I Interferon Genes (MX-1) and CD69 in Human Blood
The induction of Type I interferon (IFN) MX-1 genes and the B-cell activation marker CD69 are downstream events that occur upon activation of the TLR7 pathway. The following is a human whole blood assay that measures their induction in response to a TLR7 agonist.
Heparinized human whole blood was harvested from human subjects and treated with test TLR7 agonist compounds at 1 mM. The blood was diluted with RPMI 1640 media and Echo was used to predot 10 nL per well giving a final concentration of 1 uM (10 nL in 10 uL of blood). After mixing on a shaker for 30 sec, the plates were covered and placed in a 37° C. chamber for o/n=17 hrs. Fixing/lysis buffer was prepared (5×→1× in H2O, warm at 37° C.; Cat #BD 558049) and kept the perm buffer (on ice) for later use.
For surface markers staining (CD69): prepared surface Abs: 0.045 ul hCD14-FITC (ThermoFisher Cat #MHCD1401)+0.6 ul hCD19-ef450 (ThermoFisher Cat #48-0198-42)+1.5 ul hCD69-PE (cat #BD555531)+0.855 ul FACS buffer. Added 3 ul/well, spin 1000 rpm for 1 min and mixed on shaker for 30 sec, put on ice for 30 min. Stop stimulation after 30 minutes with 70 uL of prewarmed 1× fix/lysis buffer and use Feliex mate to resuspend (15 times, change tips for each plate) and incubate at 37 C for 10 minutes.
Centrifuge at 2000 rpm for 5 minutes aspirate with HCS plate washer, mix on shaker for 30 sec and then wash with 70 uL in dPBS and pelleted 2×s (2000 rpm for 5 min) and 50 ul wash in FACS buffer pelleted 1×s (2000 rpm for 5 min). Mix on shaker for 30 sec. For Intracellular markers staining (MX-1): Add 50 ul of BD Perm buffer III and mix on shaker for 30 sec. Incubate on ice for 30 minutes (in the dark). Wash with 50 uL of FACS buffer 2× (spin @2300 rpm×5 min after perm) followed by mixing on shaker for 30 sec. Resuspended in 20 ul of FACS buffer containing MX1 antibody ( )(4812)-Alexa 647: Novus Biologicals #NBP2-43704AF647) 20 ul FACS bf+0.8 ul hIgG+0.04 ul MX-1. Spin 1000 rpm for 1 min, mix on shaker for 30 se and the samples were incubated at RT in the dark for 45 minutes followed by washing 2×FACS buffer (spin @2300 rpm×5 min after perm). Resuspend 20 ul (35 uL total per well) of FACS buffer and cover with foil and place in 4° C. to read the following day. Plates were read on iQuePlus. The results were loaded into toolset and […] curves are generated in curve master. The y-axis 100% is set to 1 uM of resiquimod.

human TLR7 = target: T1, human TLR7 (Homo sapiens, UniProt Q9NYK1); assay: Human TLR7 agonist activity reporter assay (HEK-Blue TLR7 cells, SEAP reporter); type: cell-based; conditions: human TLR7 (hTLR7) reporter assay, SEAP readout after 18 h, average where assay repeated, read-out: TLR7 Agonism EC50
T1 construct: host or cells: HEK-Blue TLR7 cells (engineered human embryonic kidney cells)
T1 sequence (Q9NYK1 27-1049): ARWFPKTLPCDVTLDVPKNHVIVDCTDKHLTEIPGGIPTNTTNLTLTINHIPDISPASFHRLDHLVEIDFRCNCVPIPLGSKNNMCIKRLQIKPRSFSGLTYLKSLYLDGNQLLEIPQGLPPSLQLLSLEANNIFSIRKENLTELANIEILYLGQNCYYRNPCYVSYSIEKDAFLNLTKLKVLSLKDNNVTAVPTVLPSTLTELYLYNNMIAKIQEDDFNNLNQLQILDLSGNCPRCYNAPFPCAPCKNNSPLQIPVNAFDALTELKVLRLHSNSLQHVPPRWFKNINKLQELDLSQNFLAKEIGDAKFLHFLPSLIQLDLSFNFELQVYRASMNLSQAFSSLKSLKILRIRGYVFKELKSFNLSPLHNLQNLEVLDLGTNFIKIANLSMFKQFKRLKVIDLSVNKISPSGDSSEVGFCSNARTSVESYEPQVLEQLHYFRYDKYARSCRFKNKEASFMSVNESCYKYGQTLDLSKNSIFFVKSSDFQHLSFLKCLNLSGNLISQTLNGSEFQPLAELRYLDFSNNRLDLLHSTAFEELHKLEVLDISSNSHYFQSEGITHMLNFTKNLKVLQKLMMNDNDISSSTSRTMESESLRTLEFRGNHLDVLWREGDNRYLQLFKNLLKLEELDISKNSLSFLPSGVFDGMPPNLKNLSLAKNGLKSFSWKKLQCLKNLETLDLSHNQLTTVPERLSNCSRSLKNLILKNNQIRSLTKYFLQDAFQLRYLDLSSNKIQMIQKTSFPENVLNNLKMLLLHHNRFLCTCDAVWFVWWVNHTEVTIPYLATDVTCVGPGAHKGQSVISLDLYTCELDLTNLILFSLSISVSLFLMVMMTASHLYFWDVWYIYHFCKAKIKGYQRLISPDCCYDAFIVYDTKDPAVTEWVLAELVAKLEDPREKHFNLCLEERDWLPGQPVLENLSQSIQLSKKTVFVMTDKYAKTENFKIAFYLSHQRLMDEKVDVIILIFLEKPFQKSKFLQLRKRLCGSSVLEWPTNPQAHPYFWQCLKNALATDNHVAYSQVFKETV
Experimental: Human TLR7 Agonist Activity Assay
This procedure describes a method for assaying human TLR7 (hTLR7) agonist activity of the compounds disclosed in this specification.
HEK-Blue™ TLR7 cells were added to each well of a 384-well tissue-culture plate (15,000 cells per well) and incubated 16-18 h at 37° C., 5% CO2. Compounds (100 nl) were dispensed into wells containing the HEK-Blue™ TLR cells and the treated cells were incubated at 37° C., 5% CO2. After 18 h treatment ten microliters of freshly-prepared Quanti-Blue™ reagent (Invivogen) was added to each well, incubated for 30 min (37° C., 5% CO2) and SEAP levels measured using an Envision plate reader (OD=620 nm).

Structure (SMILES)	pEC50 (CD69)	pEC50 (human TLR7)
CCC[C@@H](CCO)Nc1nc(N)nc2cnn(Cc3ccc(C(=O)NC4CCN(C)CC4)c4cccnc34)c12 [Compound 121, 8-[(5-amino-7-{[(3S)-1-hydroxyhexan-3-yl]amino}-1H-pyrazolo[4,3-d]pyrimidin-1-yl)methyl]-N-(1-methylpiperidin-4-yl)quinoline-5-carboxamide]	6.82	6.57
CCC[C@@H](CCO)Nc1nc(N)nc2cnn(Cc3ccc(CN4CCN(CCO)CC4)c4cccnc34)c12 [Compound 139, (3S)-3-({5-amino-1-[(5-{[4-(2-hydroxyethyl)piperazin-1-yl]methyl}quinolin-8-yl)methyl]-1H-pyrazolo[4,3-d]pyrimidin-7-yl}amino)hexan-1-ol]	7.79	8.26
CCC[C@@H](CCO)Nc1nc(N)nc2cnn(Cc3ccc(C(=O)N4CCNC(=O)C4)c4cccnc34)c12 [Compound 118, 4-{8-[(5-amino-7-{[(3S)-1-hydroxyhexan-3-yl]amino}-1H-pyrazolo[4,3-d]pyrimidin-1-yl)methyl]quinoline-5-carbonyl}piperazin-2-one]	6.68	6.51
CCC[C@@H](CCO)Nc1nc(N)nc2c(C)nn(Cc3ccc(C(=O)NC4CCOCC4)c4cccnc34)c12 [Compound 119, 8-[(5-amino-7-{[(3S)-1-hydroxyhexan-3-yl]amino}-3-methyl-1H-pyrazolo[4,3-d]pyrimidin-1-yl)methyl]-N-(oxan-4-yl)quinoline-5-carboxamide]	6.00	6.22
CCC[C@@H](CCO)Nc1nc(N)nc2cnn(Cc3ccc(C(=O)NCCCCO)c4cccnc34)c12 [Compound 136, 8-[(5-amino-7-{[(3S)-1-hydroxyhexan-3-yl]amino}-1H-pyrazolo[4,3-d]pyrimidin-1-yl)methyl]-N-(4-hydroxybutyl)quinoline-5-carboxamide]	6.38	6.64
Nc1nc(NCC2CC3(CC3)C2)c2c(cnn2Cc2ccc(C(=O)N3CCN(CCO)CC3)c3cccnc23)n1 [Compound 115, 2-{4-[8-({5-amino-7-[({spiro[2.3]hexan-5-yl}methyl)amino]-1H-pyrazolo[4,3-d]pyrimidin-1-yl}methyl)quinoline-5-carbonyl]piperazin-1-yl}ethan-1-ol]	6.12	6.33

Further lines, results first:

pEC50 (CD69)	pEC50 (human TLR7)	Structure (SMILES)
6.49	6.81	CCCCNc1nc(N)nc2cnn(Cc3ccc(CN4CCOCC4)c4cccnc34)c12 [Compound 107, N7-butyl-1-({5-[(morpholin-4-yl)methyl]quinolin-8-yl}methyl)-1H-pyrazolo[4,3-d]pyrimidine-5,7-diamine]
6.61	6.36	CCC[C@@H](CCO)Nc1nc(N)nc2cnn(Cc3ccc(C(=O)N4CC5(CNC5)C4)c4cccnc34)c12 [Compound 124, (3S)-3-({5-amino-1-[(5-{2,6-diazaspiro[3.3]heptane-2-carbonyl}quinolin-8-yl)methyl]-1H-pyrazolo[4,3-d]pyrimidin-7-yl}amino)hexan-1-ol]
6.88	6.73	CCC[C@@H](CCO)Nc1nc(N)nc2cnn(Cc3ccc(C(=O)N4CCOCC4)c4cccnc34)c12 [Compound 113, (3S)-3-[(5-amino-1-{[5-(morpholine-4-carbonyl)quinolin-8-yl]methyl}-1H-pyrazolo[4,3-d]pyrimidin-7-yl)amino]hexan-1-ol]
6.00	6.05	CCC[C@@H](CCO)Nc1nc(N)nc2c(C)nn(Cc3ccc(C(=O)N4CCN(CCO)CC4)c4cccnc34)c12 [Compound 120, (3S)-3-{[5-amino-1-({5-[4-(2-hydroxyethyl)piperazine-1-carbonyl]quinolin-8-yl}methyl)-3-methyl-1H-pyrazolo[4,3-d]pyrimidin-7-yl]amino}hexan-1-ol]
6.14	6.54	CCC[C@@H](CCO)Nc1nc(N)nc2cnn(Cc3cccc4cccnc34)c12 [Compound 110, (3S)-3-({5-amino-1-[(quinolin-8-yl)methyl]-1H-pyrazolo[4,3-d]pyrimidin-7-yl}amino)hexan-1-ol]
